Holding throughout (type): ADME
Data set [1] is described as follows: Half life period at pH 7.4 was determined.
The nature of data set [2]: Reductive elimination of leaving group was determined at pH 7.4; expressed as loss of parent.
Data set [3] in a line: Half life period at pH 9.1 was determined.

The structures appear in SMILES notation.

For `Cn1c(CBr)cnc1[N+](=O)[O-]`, the T1/2 in data set [1] is ~ 0.3 ms. Besides, the Activity in data set [2] was determined as 0.68 µM/J.

Take `Cn1c(COC(=O)c2ccccc2O)cnc1[N+](=O)[O-]`: the T1/2 is reported as ~ 70 ms in data set [1] and ~ 250 ms in data set [3]. Also, the Activity in data set [2] amounted to 0.21 µM/J.

Turning to `CC(=O)Oc1ccccc1C(=O)OCc1cnc([N+](=O)[O-])n1C`, in data set [3], the T1/2 is recorded as ~ 30 ms. The Activity in data set [2] came to 0.19 µM/J.

(Values after ChEMBL document CHEMBL1132040, “Bioreductively-activated prodrugs for targeting hypoxic tissues: elimination of aspirin from 2-nitroimidazole derivatives” (Bioorg Med Chem Lett, 1999).)
